Data on three compounds can be found in ChEMBL document CHEMBL1201862, “PubChem BioAssay data set” (2004).

What all share (assay): growth of human tumour cells (NCI), 48 h
In experiment [1] the test system is COLO 205.
Experiment [2] concerns HL-60.
Experiment [3] deals with KM12.
Experiment [4] concerns NCI-H23.
The subject of experiment [5] is IGROV-1.
Experiment [6] concerns LOX IMVI.
For experiment [7], the system named is K562.
In experiment [8] the test system is MOLT-4.
In experiment [9] the test system is RXF 393.
For experiment [10], the system named is MCF7.
The subject of experiment [11] is OVCAR-3.
In experiment [12] the test system is MDA-N.
Experiment [13] deals with T47D.
For experiment [14], the system named is CCRF-CEM.
For experiment [15], the system named is SF-268.
Experiment [16] has as its system SK-MEL-28.
The subject of experiment [17] is SK-MEL-2.
Experiment [18] relates to SW-620.
Experiment [19] relates to HT-29.
The test system of experiment [20] is MDA-MB-435.

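All cell lines were grown in 96-well plates and treated with compound for 48 hours. Here, GI50 denotes the concentration required for 50% inhibition of growth.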 The source made the active and inactive calls. Rule as the data show it: active = GI50 up to about 1.1 µM and inactive = higher.

Take `CC(C)=CCC[C@@H](C)C1=C(Nc2ccccc2Cl)C(=O)C(C)=C(O)C1=O`: the GI50 is 2.84 µM (inactive) in experiment [1]; 0.612 µM (active) in experiment [2]; 3.08 µM (inactive) in experiment [3]; 2.84 µM (inactive) in experiment [4]; 2.45 µM (inactive) in [5]; 3.26 µM (inactive) in experiment [6]. The GI50 in [7] is 17.1 µM (inactive); in experiment [8], 2.04 µM (inactive); in experiment [9], 11.7 µM (inactive); in experiment [10], 7.69 µM (inactive); in experiment [11], 3.36 µM (inactive); in experiment [12], 4.5 µM (inactive). The GI50 in [13] is 5.62 µM (inactive); in [14] it was 1.01 µM (active); in [15], 3.85 µM (inactive); in [16], 11 µM (inactive); in experiment [17], 3.66 µM (inactive); in experiment [18], 4.71 µM (inactive). For the same compound, the results for the GI50 in [19] and in experiment [20] were 3.56 µM (inactive) and 4.85 µM (inactive), respectively.
For `Cn1cnc(N2CCCC2)c(C#N)c1=O`, the GI50 in experiment [1], in [2], in experiment [3], in experiment [4], in experiment [5] and in [6] was > 100 µM (inactive) in each case. Moreover, the GI50 in experiment [7], in experiment [8], in [9], in experiment [10], in experiment [11] and in experiment [12] was > 100 µM (inactive) in each case. The GI50 in experiment [13], in experiment [14], in experiment [15], in experiment [16], in experiment [17] and in experiment [18] was > 100 µM (inactive) throughout. Also, the GI50 in experiment [19] and in experiment [20] was > 100 µM (inactive) throughout.
On to `CC[C@H](C)C1=C(O)[N@+]2([O-])Oc3ccc(-c4c(O)c(O)c(-c5ccc(OC(C)=O)cc5)c(OC(C)=O)c4OC(C)=O)cc3O[C@]2([C@@H](C)CC)C(=O)N1O`, for which the GI50 in [1] is 16.3 µM (inactive); in [2], 15.2 µM (inactive); in experiment [3] it was 29.9 µM (inactive); in experiment [4], > 50 µM (inactive); in [5], 8.85 µM (inactive); in experiment [6], 12.9 µM (inactive). The GI50 was 12.3 µM (inactive) in [7]; 12.7 µM (inactive) in experiment [8]; > 50 µM (inactive) in experiment [9]; 24.2 µM (inactive) in experiment [10]; 16.4 µM (inactive) in experiment [11]; 34 µM (inactive) in experiment [12]. Also, the GI50 is 21.7 µM (inactive) in [13]; 10.3 µM (inactive) in [14]; 33.3 µM (inactive) in experiment [15]; 33 µM (inactive) in experiment [16]; > 50 µM (inactive) in experiment [17]; 10.7 µM (inactive) in experiment [18]. Further, the GI50 in experiment [19] is 25.3 µM (inactive); in experiment [20], 27.9 µM (inactive).
